{"source": "patent EP1061957B1", "about": "“MANGANESE (II) CHELATES WITH HIGH RELAXIVITY IN SERUM” (BRACCO S.p.A., priority 1998, dated 1999)", "key": {"[1]": {"test": "Relaxivity in human serum reconstituted from Seronorm Human", "type": "physicochemical", "details": "human serum reconstituted from lyophilized Seronorm Human (Nycomed Pharma)", "experimental": "The relaxivity of the compounds of the invention was measured both in saline solution and in human serum, reconstituted from Seronorm^(R) Human (Nycomed Pharma), lyophilized human serum."}, "mouse [2]": {"system": "mouse", "details": "literature value, cited from earlier work"}, "[3]": {"details": "thermodynamic stability constant; from Smith and Martell, Critical Stability Constants, Vol. 6; cited from earlier work"}, "[4]": {"test": "Thermodynamic stability constant in aqueous solution, potentiometric method", "type": "physicochemical", "details": "20°C, 0.1 M KCl aqueous solution"}, "mouse [5]": {"system": "mouse", "test": "Acute toxicity, DL50 in the mouse", "type": "in vivo", "details": "i.v."}}, "note": "Read-outs that look alike come from different tables or passages of the source.", "data": [{"molecule": "[Cl][Mn][Cl]", "note": "[MnCl2]", "values": [{"measurement": "Relaxivity Seronorm Human r1", "setting": "[1]", "value": "53 ^(3) mM^-1s^-1"}, {"measurement": "DL50", "setting": "mouse [2]; i.v.", "value": "0.25 - 0.30 ^(1) mmol/kg"}]}, {"molecule": "Mn-EDTA", "values": [{"measurement": "Relaxivity Seronorm Human r1", "setting": "[1]", "value": "10 ^(3) mM^-1s^-1"}, {"measurement": "Log KML", "setting": "[3]", "value": "13.88 ^(2)"}, {"measurement": "DL50", "setting": "mouse [2]; i.p.", "value": "5.9 ^(2) mmol/kg"}]}, {"molecule": "Manganese complex(II) of N,N'-1,2-ethanediylbis[N-(carboxymethyl)-O-(phenylmethyl) -D,L-serine] salified with 1-deoxy-1-(methyl amino) -D-glucitol (1:2) [EXAMPLE 1]", "values": [{"measurement": "Relaxivity Seronorm Human r1", "setting": "[1]", "value": "36 ^(3) mM^-1s^-1"}, {"measurement": "Log KML", "setting": "[4]", "value": "13.8 ± 0.1"}, {"measurement": "DL50", "setting": "mouse [5]", "value": 4.5, "unit": "mmol/kg"}]}]}
